From patent US20090023801A1, “INHIBITORS OF BETA AMYLOID PRODUCTION” (Wyeth, priority 2007, published 2009)
Where two headings read alike, the source gives them in different places.

Experiments:
Assay type in all cases: cell-based
Aβ42 = assay: Aβ-lowering MSD electrochemiluminescent assay of conditioned media from CHO cells expressing human APP (Aβ42)
Experimental: (§1) The activity of compounds in lowering the generation of Aβ40 and Aβ42, the most abundant forms of beta amyloid, from APP (amyloid precursor protein) was measured in an electrochemiluminescent (ECL) assay of conditioned media from chinese hamster ovary (CHO) cells stably expressing the human amyloid precursor protein (APP) reporter construct, hAPP-REPNL751 (Sughir, R. et al.; J. Biolog. Chem (1992) 267: 25602-25608). Aβ peptides were secreted at high levels into cell culture media by cells carrying the human APP transgene; compounds were tested for their capacity to modulate this production. The Aβ peptide in the conditioned medium was quantitated by a sandwich immunoassay with the MSD ECL detection system. Cell metabolism was measured using a 3-(4,5-dimethylthiazol-2-yl)-5-(3-carboxymethoxypheny)-2-(4-sulfophenyl)-2H-tetrazolium, inner salt (MTS) salt kit (which measures the mitochondrial activity of cells by the bioreduction of Owen's reagent). This assay consists of the following protocol:
(§2) 1. hAPP-REPNL751CHO cells were seeded into 96 well plates and incubated until about 60-70% confluence.
(§3) 2. Medium was removed, cells were washed, and fresh serum-free medium (Ultraculture) was put on cells.
(§4) 3. Compounds were diluted and then added to the cell medium.
(§5) 4. Cells were incubated, with compounds, for indicated times.
(§6) 5. Streptavidin coated Meso Scale Discover (MSD) plates (MSD standard MULTI-ARRAY® 96 plate, cat.# P11SA-1) were washed […] with TTBS (Tris-buffered saline, the TWEEN® 20 reagent).
(§7) 6. 20 μL conditioned medium were removed from the cells and added to the TTBS prewashed MSD plates.
(§8) 7. Standard curve dilutions of synthetic Aβ40 and Aβ42 were prepared and added to the MSD plates.
(§9) 8. A reagent mix was prepared in 1% MSD Blocker A (appropriate concentration of biotinylated 6E10 antibody, detection antibodies to Aβ40, Aβ42, and MSD ruthinylated tag antibody).
(§10) 9. 20 μL reagent mix was distributed to sample plate.
(§11) 10. Plates were incubated with shaking overnight at 4° C.
(§12) 11. Plates were washed 3× with TTBS.
(§13) 12. 150 μL read buffer was added per well (MSD® Read Buffer T, cat#R92TC-2, made 1× with distilled water).
(§14) 13. Plates were read in a MSD® plate reader within 2 hours.
(§15) Assays were accepted or rejected based upon specific performance criteria, including regression coefficient of standard curve, adequate signal to noise ratio, sample signals lying within the range of the standard curve, etc.: the specific parameters were established for each tissue type prior to performing an assay, and were included in the full analytical procedure.
(§16) Plate data from both assays (MTS and MSD® ELISA) were transferred into a Microsoft EXCEL® spreadsheet to determine the toxicity, and inhibition caused by the compounds. Standard curves of Aβ were generated using LSW™ toolbar Hill slope model 42, with 1/y weighting (general sigmoidal curve with Hill slope, a to d; y=(a−d)/(1+(x/c)̂b)+d). Inhibition data were expressed as a percent of the average of the Aβ values in the vehicle treated wells (all values are background subtracted), using LSW™ toolbar Hill Slope model 68 (ligand-receptor binding/sigmoidal, with Hill slope and Bmax to 0; y=Bmax*(1−(x̂n/(K̂n+x̂n))), after raw values were translated/transformed into absolute Aβ values utilizing the standard curve generated as described above (e.g. back calculate absolute Aβ values from the raw values utilizing standard curve). Onboard controls to verify assay performance were checked to assure that amyloid is within linear detection range of the assay, that cells were expressing correctly, and that the MSD itself was performing according to quality control (QC) standards.
(§17) % Inhibition>50% may be considered a positive response or an interesting result in this assay; EC50 determination were determined.
(§18) The beta amyloid inhibitory activity of compounds of formula (I) was determined using the MSD ECL assay. Inhibition of Notch processing was measured using the stable transfection reporter assay See, Table 1 below.

Notch = assay: Stable transfection Notch reporter assay (HES1-SEAP, P8H6 CHO-K1 cells)
Source text: A concern with compounds that lower beta amyloid synthesis by targeting the γ-secretase enzyme is that this enzyme also is involved in the cleavage of other substrates besides APP especially the Notch substrate. […] Thus, a selectivity of APP cleavage over Notch cleavage is desired in order to avoid G.I. side effects. The activity of compounds in cleaving Notch can be measured in a whole cell functional Notch assay. This is an assay to determine the effects of compounds on the S3 (γ-secretase like) processing of Notch. […] SEAP transactivation is then detected by luminescent assay. The assay consists of the following protocol:
• (i) Materials: The P8H6 inducible stable cell line was derived from T-REX™ CHO-K1, stably expressing Tet repressor, Notch (pZX1) and HES1-SEAP (pZX2) reporter constructs. A Wallac 1450 Victor™ Luminescence Counter was used to measure luminescent signal. All other materials and reagents were of highest quality available and were all from commercial sources.
(ii) Construct Description: • pZX1: Mouse Notch1 with deleted extracellular domain cloned at Hind III/Xho I sites of pcDNA5/TO vector: Ampicillin Resistance for bacteria, hygromycin resistance for cells. • pZX2: Mouse HES1 promoter together with reporter gene SEAP cloned at Not I/Apa I sites of pcDNA3.1 with deletion of CMV promoter.
(iii) Procedure: • 1. P8H6 cells were grown in Ham's F12 complete growth media containing 10% FBS (reduced tetracycline), 2 mM of L-glutamine, 1 mg/mL of hygromycin, 1 mg/mL of the GENETICIN® antibiotic, 10 μg/mL of Blasticidin and 1% Penicillin-Streptomycin were supplemented with doxycline with final induction concentration of 0.2 μg/mL. The cells were seeded in 96-well tissue culture plate at 8000/well. • 2. Test compounds in 0.2% DMSO/25 mM HEPES buffer were diluted at final working concentration of 20 μM, 6.7 μM, 2.2 μM, 741 nM, 247 nM, 82 nM, 27 nM, 9 nM and 3 nM. Diluted compounds then were added to P8H6 cells in 96-well tissue culture plates. For vehicle samples, the same volume of 0.2% DMSO/25 mM HEPES buffer was added. • 3. Cells were incubated at 37° C., 5% CO2 for 48 hours. • 4. SEAP levels in the conditioned media were assessed using the Clontech GREATESCAPE™ SEAP Chemiluminescence detection kit according to the manufacturer's instruction. Briefly, 15 μL of conditioned media were mixed with 45 μL of the dilution buffer and incubated at 65° C. for 45 minutes. After cooling, assay buffer was added and the sample was incubated with the CSPD® substrate. • 5. Luminescence was measured in a Wallac 1450 VICTOR™ luminescence counter.
EC50 was the compound concentration that was estimated to provide a 50% reduction of maximum response in Notch induced SEAP levels. An EC50 from a given assay may only be used for averaging if it has met the following criteria: • 1. There is a lower dose in the assay which gives a % Notch Activity>60% (bracketing lower dose). • 2. There is a higher dose in the assay which gives a % Notch Activity<30% (bracketing higher dose), and the maximum inhibition is reached (e.g., a given compound might achieve 80% inhibition (% Notch activity is about 20%) over several doses, and therefore 20% would be considered the maximum inhibition.
Data were analyzed in Microsoft EXCEL® format. EC50 was calculated by LSW using sigmoidal inhibition from B0 to nsb model (model 59). Each assay plate contained a dose response curve for the reference compound 5-chloro-N-[(1S,2R)-2-ethyl-4,4,4-trifluoro-1-(hydroxymethyl)butyl]thiophene-2-sulfonamide. This compound is discussed in International Patent Publication No. WO 2004/092155. The following data is not shown in that publication.
as §18

Aβ40 = assay: Aβ-lowering MSD electrochemiluminescent assay of conditioned media from CHO cells expressing human APP (Aβ40)
Experimental: as §1, §2, §3, §4, §5, §6, §7, §8, §9, §10, §11, §12, §13, §14, §15, §16, §17, §18

[1] = CHO, beta amyloid assay reference compounds, read-out: EC50 Aβ42
[2] = CHO-K1, Notch assay reference compounds, read-out: EC50 (Notch assay)
[3] = CHO, beta amyloid assay reference compounds, read-out: EC50 Aβ40
[4] = MSD electrochemiluminescent assay, hAPP-REPNL751 CHO cells, read-out: Aβ42 EC50 for inhibition of Aβ42
[5] = MSD electrochemiluminescent assay, hAPP-REPNL751 CHO cells, read-out: Aβ40 EC50 for inhibition of Aβ40
[6] = CHO-K1, stable transfection Notch reporter assay, 48 hours, read-out: Notch EC50 for inhibition of Notch

## CC(C)[C@H](O)C(=O)N[C@@H](C)C(=O)N[C@@H]1C(=O)N(C)CCc2ccccc21 [(2S)-2-hydroxy-3-methyl-N-((1S)-1-methyl-2-{[(1S)-3-methyl-2-oxo-2,3,4,5-tetrahydro-1H-3-benzazepin-1-yl]amino}-2-oxoethyl)butanamide, reference compound]
Aβ42; [1]
  EC50: 79 nM
Notch; [2]
  EC50: 68 nM
Aβ40; [3]
  EC50: 109 nM

## O=S(=O)(N[C@@H](CO)[C@@H](c1cc(F)cc(F)c1)C(F)(F)F)c1ccc(Cl)s1.O=S(=O)(N[C@H](CO)[C@H](c1cc(F)cc(F)c1)C(F)(F)F)c1ccc(Cl)s1 (relative stereo) [Example 7, 5-Chloro-N-[(1S*,2S*)-2-(3,5-difluorophenyl)-3,3,3-trifluoro-1-(hydroxymethyl)propyl]thiophene-2-sulfonamide and 5-chloro-N-[(1R*,2R*)-2-(3,5-difluorophenyl)-3,3,3-trifluoro-1-(hydroxymethyl)propyl]thiophene-2-sulfonamide]
Aβ42; [4]
  EC50: 8750 nM
Notch; stable transfection Notch reporter assay, 48 hours, read-out: Notch EC50 for inhibition of Notch
  EC50: > 20000 nM
Aβ40; [5]
  EC50: 7300 nM

## O=S(=O)(N[C@H](CO)[C@@H](c1ccc(Cl)cc1)C(F)(F)F)c1ccc(Cl)s1 (relative stereo) [Example 13, 5-Chloro-N-[(1S*,2R*)-2-(4-chlorophenyl)-3,3,3-trifluoro-1-(hydroxymethyl)propyl]thiophene-2-sulfonamide]
Aβ42; [4]
  EC50: 396 nM
Notch; [6]
  EC50: 7600 nM
Aβ40; [5]
  EC50: 316 nM

## O=S(=O)(N[C@H](CO)[C@H](c1ccccc1)C(F)(F)F)c1ccc(Cl)s1 (stereo in doubt) [Example 5, 5-Chloro-N-[(1S*,2S*)-3,3,3-trifluoro-1-hydroxymethyl-2-phenylpropyl]thiophene-2-sulfonamide]
Aβ42; [4]
  EC50: 7200 nM
Notch; [6]
  EC50: > 20000 nM
Aβ40; [5]
  EC50: 7520 nM

## O=S(=O)(N[C@H](CO)[C@@H](c1cccc(F)c1)C(F)(F)F)c1ccc(Cl)s1 (relative stereo) [Example 12, 5-Chloro-N-[(1S*,2R*)-3,3,3-trifluoro-2-(3-fluorophenyl)-1-(hydroxymethyl)propyl]thiophene-2-sulfonamide]
Aβ42; [4]
  EC50: 98 nM
Notch; [6]
  EC50: 1740 nM
Aβ40; [5]
  EC50: 98 nM

## O=S(=O)(N[C@H](CO)[C@H](c1ccc(F)cc1)C(F)(F)F)c1ccc(Cl)s1 (relative stereo) [Example 10, 5-Chloro-N-[(1S*,2S*)-3,3,3-trifluoro-2-(4-fluorophenyl)-1-(hydroxymethyl)propyl]thiophene-2-sulfonamide]
Aβ42; [4]
  EC50: 1570 nM
Notch; [6]
  EC50: > 20000 nM
Aβ40; [5]
  EC50: 1880 nM

## CC[C@H](CC(F)(F)F)[C@@H](CO)NS(=O)(=O)c1ccc(Cl)s1 [5-chloro-N-[(1S,2R)-2-ethyl-4,4,4-trifluoro-1-(hydroxymethyl)butyl]thiophene-2-sulfonamide, reference compound]
Aβ42; [1]
  EC50: 5 nM
Notch; [2]
  EC50: 225 nM
Aβ40; [3]
  EC50: 6 nM

## O=S(=O)(N[C@H](CO)[C@H](c1cccc(F)c1)C(F)(F)F)c1ccc(Cl)s1 (relative stereo) [Example 11, 5-Chloro-N-[(1S*,2S*)-3,3,3-trifluoro-2-(3-fluorophenyl)-1-(hydroxymethyl)propyl]thiophene-2-sulfonamide]
Aβ42; [4]
  EC50: 3380 nM
Notch; [6]
  EC50: > 20000 nM
Aβ40; [5]
  EC50: 4060 nM

## O=S(=O)(N[C@@H](CO)[C@H](c1ccccc1)C(F)(F)F)c1ccc(Cl)s1 [Example 3, 5-Chloro-N-[(1R,2S)-3,3,3-trifluoro-1-(hydroxymethyl)-2-phenylpropyl]thiophene-2-sulfonamide]
Aβ42; [4]
  EC50: > 15000 nM
Aβ40; [5]
  EC50: > 15000 nM

## O=S(=O)(N[C@H](CO)[C@H](c1ccc(Cl)cc1)C(F)(F)F)c1ccc(Cl)s1 (relative stereo) [Example 14, 5-Chloro-N-[(1S*,2S*)-2-(4-chlorophenyl)-3,3,3-trifluoro-1-(hydroxymethyl)propyl]thiophene-2-sulfonamide]
Aβ42; [4]
  EC50: 2280 nM
Notch; [6]
  EC50: > 20000 nM
Aβ40; [5]
  EC50: 2360 nM

## O=S(=O)(NC(CO)C(c1ccccc1)C(F)(F)F)c1ccc(Cl)s1 (stereo not shown) [Example 1, 5-Chloro-N-[3,3,3-trifluoro-1-(hydroxymethyl)-2-phenylpropyl]thiophene-2-sulfonamide]
Aβ42; [4]
  EC50: 760 nM
Notch; [6]
  EC50: > 20000 nM
Aβ40; [5]
  EC50: 710 nM

## O=S(=O)(N[C@H](CO)[C@@H](c1cc(F)cc(F)c1)C(F)(F)F)c1ccc(Cl)s1 (relative stereo) [Example 8, 5-Chloro-N-[(1S*,2R*)-2-(3,5-difluorophenyl)-3,3,3-trifluoro-1-(hydroxymethyl)propyl]thiophene-2-sulfonamide]
Aβ42; [4]
  EC50: 80 nM
Notch; [6]
  EC50: 2780 nM
Aβ40; [5]
  EC50: 83 nM

## O=S(=O)(N[C@@H](CO)[C@@H](c1ccccc1)C(F)(F)F)c1ccc(Cl)s1 (stereo in doubt) [Example 2, 5-Chloro-N-[(1R* ,2R*)-3,3,3-trifluoro-1-(hydroxymethyl)-2-phenylpropyl]thiophene-2-sulfonamide]
Aβ42; [4]
  EC50: > 15000 nM
Aβ40; [5]
  EC50: > 15000 nM
